Results from US20100234381A1, “BIOMARKERS AND METHODS FOR DETERMINING SENSITIVITY TO VASCULAR ENDOTHELIAL GROWTH FACTOR RECEPTOR-2 MODULATORS” (Bristol-Myers Squibb Company, priority 2007, published 2010).
“Also recorded” adds a separate entry of the source.

Columns and labels:
sVEGFR2 = assay: Plasma sVEGFR2 change from baseline in patients; type: in vivo, human
[1] = system: FGF2-stimulated cancer cell lines; assay: FGF2-stimulated tumor cell proliferation, panel of cancer cell lines; type: cell-based; settings: following FGF2 stimulation
GEO colon cancer cells = assay: VEGF-induced proliferation of GEO colon cancer cells (modified MTS assay); type: cell-based; settings: VEGF 2.5 ng/ml; 72 hours
Experimental: Cell Culture-GEO colon cancer cell line was routinely maintained in RPMI 1640 (Cellgro, Virginia) with 1% fetal bovine serum (Cellgro, Virginia) at 37° C. in 5% carbon dioxide/95% air in the presence of 100 units/ml penicillin, 100 μg/ml streptomycin (Cellgro, Virginia). Cell proliferation was determined by a modified MTS assay with […] 96® Aqueous One Solution Reagent (Promega, Madison, Wis.). […] After 180 minutes incubation, the optical densities (OD) of these samples were directly measured using SPECTRAMAX® plus (Molecular Device, California) and reference wavelength of 490 nm. […] Cell proliferation was determined by a modified MTS assay with […] […] After 180 minutes incubation, the optical densities (OD) of these samples were directly measured using SPECTRAMAX® plus (Molecular Device, California) and reference wavelength of 490 nm. […] […]

pERK and pAKT = assay: Western blot of downstream pERK and pAKT after FGF2 stimulation; type: cell-based; settings: 2 μm brivanib, 40 ng/ml FGF2, HCC cell line
Experimental: Anti-FGFR1, Anti-VEGFR2, Anti-ERK, Anti-AKT, and Anti-alpha tubulin antibodies were also utilized. Blots were incubated with indicated primary antibodies and 1:7500 horseradish peroxidase-conjugated secondary antibodies. All primary antibodies were used at a final concentration of 1 μg/ml. The blots were then visualized with a chemiluminescent detection system.

[2] = system: A2780 ovarian cancer cells; assay: FGF2-induced proliferation of A2780 ovarian cancer cells (modified MTS assay); type: cell-based
Experimental: Cell proliferation was determined by a modified MTS assay with […] 96® Aqueous One Solution Reagent (Promega, Madison, Wis.). A2780 ovarian cancer cells, MIAPAC-2 pancreatic cancer cells, or GEO colon cancer cells were seeded on 96-well flat-bottomed tissue culture plates (Becton Dickinson, San Jose, Calif.) at a concentration of 3×10^3 cells/well in RPMI 1640 with 1% fetal bovine serum at 37° C. in 5% carbon dioxide/95% air in the presence of 100 units/ml penicillin, 100 μg/ml streptomycin and allowed to adhere to the plate overnight. Then the cells were incubated in the presence of each concentration of 0 (control), 0.3, 0.6, 1.25, 2.5, 5, 10 ng/ml of FGF2 or VEGF for another 72 hours at 37° C. in a humidified atmosphere of 5% CO2 in air. After treatment, 20 μl of […] 96® Aqueous One Solution Reagent was dropped into each well of plates. After 180 minutes incubation, the optical densities (OD) of these samples were directly measured using SPECTRAMAX® plus (Molecular Device, California) and reference wavelength of 490 nm. The OD of control samples was regarded as 100. Each condition was performed with 4 wells and experiment was repeated twice.

FGF pathway = assay: Gene set enrichment analysis of FGF pathway expression after FGF2 stimulation; type: cell-based; settings: 1 μm drug after FGF2 stimulation
Experimental: The expression profiles of individual genes within each pathway were analyzed, and the log of the change in expression profile for each condition was measured. Overall, 67 pathways were analyzed. Each gene analyzed for each pathway have not been provided. But, 46 genes from the FGF pathway, 62 genes from the VEGF pathway were analyzed, and a larger generic number of genes consisting of 92 genes for the FGF pathway were analyzed using the AMBION® gene set.

- IC50 ([2]; ovarian cancer cell line A2870, read-out: IC50, FGF2-induced cell growth): < 1000 nM
Substance: [(1R),2S]-2-Aminopropionic acid 2-[4-(4-fluoro-2-methyl-1H-indol-5-yloxy)-5-methylpyrrolo[2,1-f][1,2,4]triazin-6-yloxy]-1-methylethyl ester [brivanib]
- sVEGFR2 change from baseline (%) (Day 26) (n = 39) (sVEGFR2; FGF2+ patients (n = 24)): −23%
- sVEGFR2 change from baseline (%) (Day 26) (n = 39) (sVEGFR2; FGF2− patients (n = 19)): −15%
- Brivanib-resistant (>3 μM) cell lines, number ([1]; Colon cell lines): 3
- Brivanib-resistant (>3 μM) cell lines, number ([1]; NSCLC cell lines): 1
- Brivanib-resistant (>3 μM) cell lines, number ([1]; Ovarian cell lines): 1
- Brivanib-sensitive (≦3 μM) cell lines, number ([1]; Ovarian cell lines): 1
- Brivanib-resistant (>3 μM) cell lines, number ([1]; Pancreatic cell lines): 1
- Brivanib-sensitive (≦3 μM) cell lines, number ([1]; Pancreatic cell lines): 1
- Brivanib-sensitive (≦3 μM) cell lines, number ([1]; Prostate cell lines): 1
- Brivanib-resistant (>3 μM) cell lines, number ([1]; Renal cell lines): 1
- Brivanib-sensitive (≦3 μM) cell lines, number ([1]; Renal cell lines): 3
- Brivanib-sensitive (≦3 μM) cell lines, number ([1]; Total of cell lines): 9
- inhibition of VEGF-induced cellular proliferation in GEO cells (GEO colon cancer cells): did not potently inhibit
- downstream pathway pERK and pAKT (pERK and pAKT): affecting downstream pathway genes such as pERK and pAKT
- effect on FGF2-induced cellular proliferation ([2]; A2780 ovarian cancer cells): potently inhibited; also recorded: inhibits ovarian cancer and pancreatic cancer cell line growth directly
- inhibition of FGF2-induced cell growth ([2]; ovarian cancer cell line A2870): > 50%
- FGF2-induced FGF pathway up-regulation (expression) (FGF pathway): inhibited only by brivanib; also recorded: abrograted only in the presence of only brivanib
